Molecular target: Transforming acidic coiled-coil-containing protein 3 (Homo sapiens) (UniProt Q9Y6A5)
Test: inhibition of ARNT PAS-B/TACC3 complex formation – biochemical, AlphaScreen, cherry-picked samples, confirmation (AID 651703);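 also: TACC3 partner is the GST-tagged E629A mutant dimer; hits lower the signal meaning they disrupt ARNT binding to TACC3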
Details: AlphaScreen His-ARNT PAS-B / GST-TACC3 binding, luminescence

SMILES	AC50
C[C@@H]1CCCCO[C@@H](CN(C)C(=O)Nc2cccc3ccccc23)[C@H](C)CN([C@@H](C)CO)C(=O)c2cc(NS(=O)(=O)c3cn(C)cn3)ccc2O1	56.4 µM
Cc1csc(NC(=O)CSc2ccc(-c3ccccn3)nn2)n1	3.14 µM
O=c1cc(C(F)(F)F)nc(-n2[nH]c3c(c2=O)CCCC3)[nH]1	28 µM
NC1=CC(=O)C(=O)c2ccccc21	38.9 µM
O=C(CSc1n[nH]c(=O)[nH]c1=O)N/N=C/c1ccccc1O	43 µM
O=C(Nc1nnc(SCc2ccc(F)cc2)s1)c1ccccn1	7.06 µM
O=C(Nc1ccc(F)cc1)c1nc[nH]c1C(=O)O	14.3 µM
CCN(CC)c1ccc(C(=C2C=CC(=[N+](CC)CC)C=C2)c2ccc(N(CC)CC)cc2)cc1	0.734 µM
Oc1cccc2c(-c3nn[nH]n3)ccnc12	2.14 µM
COCc1cc(CN2CCN(C)CC2)c(O)c2ncccc12	1.14 µM
Cc1ccc(Nc2c(-c3ccccn3)nc3cccc(C)n23)cc1	3.62 µM
Cc1cccc(CNc2nc(-c3ccccn3)nnc2-c2ccccc2)c1	< 0.5 µM
O=S(=O)(N[C@@H]1CC[C@@H](CCn2cc(-c3ccccn3)nn2)O[C@@H]1CO)c1cccc(Cl)c1	27.2 µM
OCCN1CCN(Cc2cc(Cl)c3cccnc3c2O)CC1	1.34 µM
CCC(=O)NC(c1ccc(C)cc1)c1ccc2cccnc2c1O (stereo not drawn)	4.71 µM
CC(=O)Nc1cccc(NC(=O)CSc2ccc(-c3ccccn3)nn2)c1	2.78 µM
Cc1ccc(C(=O)Nc2nc(-c3ccccn3)cs2)s1	4.78 µM
O=C(Nc1nnc(-c2ccccc2Cl)o1)c1cccnc1	15.8 µM
Cc1cccc(CNC(=O)c2cc(-c3ccccc3)on2)c1	23.4 µM
O=c1oc2c3c4c(cc2s1)CCCN4CCC3	26.1 µM
Oc1ccc(CNC2CCc3ccccc32)c2cccnc12 (stereo not drawn)	1.22 µM
O=C(Oc1c(CN2CCOCC2)cc(Cl)c2cccnc12)c1ccccc1	18.3 µM
Cc1ccccc1-n1c(SCC(=O)Nc2ccc3c(c2)OCO3)nnc1-c1ccccn1	15.6 µM

SMILES	AC50
O=C(COc1ccc(Cl)cc1)Nc1nnc(-c2ccco2)o1	19.6 µM
Cc1cccc(C(=O)Nc2nnc(-c3ccncc3)o2)c1	36.5 µM
O=C(NN=Cc1c(O)ccc2ccccc12)c1ccncc1	9.94 µM
Oc1c(I)cc(I)c2cccnc12	7.46 µM
Cc1cc(C(=O)N/N=C/c2c(CO)cnc(C)c2O)c2ccccc2n1	3.5 µM
Cc1[nH]n(-c2ccccc2)c(=O)c1/C=N\NC(=O)C1COc2ccccc2O1 (stereo not drawn)	17.4 µM
O=C(c1ccccn1)N1CC[C@@H]2[C@H]1c1cc(Br)ccc1N[C@@H]2CO	27.7 µM
CCOc1cc(N2CCOCC2)c(OCC)cc1NC(=O)COc1cccc2cccnc12	20.3 µM
O=S(=O)(NC1CCN(Cc2ccc(OCCO)cc2)CC1)c1cccc2cccnc12	15.2 µM
C[C@@H](C(=O)Nc1nc(-c2ccccn2)cs1)N1C(=O)C2CCCCC2C1=O (stereo partly drawn)	4.28 µM
O=C(N[C@H]1CC[C@@H](CCn2cc(-c3ccccn3)nn2)O[C@H]1CO)c1ccncc1	9.53 µM
COc1ccc([Si](C)(C)[C@@H]2[C@@H](CCO)O[C@]3(C(=O)N4c5c(cc(OC)cc53)C(C)=CC4(C)C)[C@H]2C)cc1	11.3 µM
O=C(NC[C@@H]1[C@H](c2ccccc2)[C@H](CO)N1Cc1ccccn1)C1CCC1	28.2 µM
O=C(CSc1ccc(-c2ccccn2)nn1)NC1CCCCC1	2.56 µM
CCN(CC)c1ccc(/C=N/NC(=O)c2ccc3nc[nH]c3c2)c(O)c1	12.5 µM
Nc1ccccc1C(=O)N=Nc1[nH]c(N)c2ccccc12	10.3 µM
Nn1c(SC/C=C/c2ccccc2)nnc1-c1ccccn1	5.62 µM
O=C(CSc1ccc(-c2ccccn2)nn1)NCc1ccccc1	4.18 µM
Cc1ccc(C(=O)Nc2nc(-c3ccccn3)cs2)cc1S(=O)(=O)N1CCOCC1	2.37 µM
O=S(=O)(N[C@H]1CC[C@@H](CCn2cc(-c3ccccn3)nn2)O[C@@H]1CO)c1cccc(F)c1	10.9 µM
Cn1nc(-c2ccccn2)nc2c(=O)n(C)c(=O)nc1-2	< 0.5 µM
Cc1cccc(NC(=O)CSc2cccc3cccnc23)c1	21.8 µM
COCc1cc(=O)[nH]c(Nc2nc3ccc(C)cc3o2)n1	7.59 µM

SMILES	AC50
CC(C)C1Cc2c(sc3ncnc(NN)c23)CO1 (stereo not drawn)	7.67 µM
Fc1ccc(-c2ccc(CNCc3ccccn3)o2)cc1	31.2 µM
c1ccc(-c2csc(Nc3nc(-c4ccccn4)nnc3-c3ccccc3)n2)cc1	0.897 µM
Cc1ccc(S(=O)(=O)CCc2nnc(NC(=O)c3ccccn3)s2)cc1	3.01 µM
O=C(CSc1nnc(CNC(=O)c2ccc(F)cc2)o1)Nc1nccs1	61.9 µM
CCC(C)Nc1nc(-c2ccccn2)nc2ccccc12 (stereo not drawn)	8.57 µM
O=C(NC[C@H]1[C@@H](c2ccccc2)[C@@H](CO)N1Cc1ccccn1)C1CCC1	51.5 µM
c1ccc(-c2nnc(-c3ccccn3)nc2N2CCC(C3CCCCC3)C2)cc1 (stereo not drawn)	2.68 µM
O=C(CSc1nnc(-c2cccnc2)o1)Nc1nccs1	17.7 µM
C[C@@H](Nc1nc(-c2ccccn2)nnc1-c1ccccc1)c1ccccc1	0.77 µM
O=C(N[C@H]1CC[C@@H](CCn2cc(-c3ccccn3)nn2)O[C@H]1CO)c1ccc(F)cc1	12.6 µM
N[C@@H]1CC[C@@H](CCn2cc(-c3ccccn3)nn2)O[C@H]1CO	0.565 µM
O=C(CSc1cccc2cccnc12)Nc1ccc(S(=O)(=O)N2CCOCC2)cc1	10.9 µM
Cc1ccc(S(=O)(=O)CCC(=O)Nc2nc(-c3ccccn3)cs2)cc1	10.5 µM
CCOC(=O)Cc1nnc(NC(=O)c2ncn[nH]2)s1	23.2 µM
O=C(N[C@H]1CC[C@H](CCn2cc(-c3ccccn3)nn2)O[C@H]1CO)c1ccncc1	14.4 µM
CCC(=O)NC(c1ccc(N(C)C)cc1)c1c(O)ccc2ccccc12 (stereo not drawn)	35.5 µM
c1ccc(-c2ccc(CNc3nc(-c4ccccn4)nnc3-c3ccccc3)cc2)cc1	1.6 µM
C/C=C/c1ccc([C@H]2[C@@H](CO)N(Cc3ccccn3)[C@H]2CNC(=O)CC)cc1	66.7 µM
O=S(=O)(N[C@H]1CC[C@H](CCn2cc(-c3ccccn3)nn2)O[C@@H]1CO)c1cccc(Cl)c1	19.2 µM
C/C(=N\NC(=O)C1CCCN(S(=O)(=O)c2ccccc2)C1)c1ccccn1 (stereo not drawn)	11.1 µM
CC(C)(C)C1=Nn2c(nnc2-c2ccccn2)SC1	6.44 µM
CN(Cc1ccccc1)CC(O)COc1ccc(CNCc2nccn2C)cc1 (stereo not drawn)	47.9 µM

SMILES	AC50
COc1ccc(S(=O)(=O)N2CCOC2CNC(=O)C(=O)NCCCn2ccnc2)cc1OC (stereo not drawn)	22.4 µM
CCCCn1c(NC(=O)c2ccco2)c(C(=O)OCC)c2nc3ccccc3nc21	21.9 µM
CCOc1cc2c(C#N)c(N3CCOCC3)nc(N)c2c(N)n1	30.4 µM
O=C(NC[C@@H]1[C@H](c2ccccc2)[C@H](CO)N1Cc1ccccn1)C1CC1	59.6 µM
COc1ccc2ccccc2c1CNCc1ccccn1	24.8 µM
Cn1c(-c2ccc3c(c2)OCO3)cnc1N	39 µM
O=S(=O)(N[C@H]1CC[C@H](CCn2cc(-c3ccccn3)nn2)O[C@H]1CO)c1cccc(F)c1	21.8 µM
Brc1ccc(-c2nn3c(-c4ccccn4)nnc3s2)o1	9.12 µM
COCc1ccc(O)c2ncccc12	2.22 µM
c1ccc(-c2nnc(-c3ccccn3)nc2NCCN2CCOCC2)cc1	0.593 µM
CSc1ccccc1NC(=O)CN(C)C(=O)COc1cccc2cccnc12	13.8 µM
O=c1cc(N/N=C/c2ccccc2)[nH]c(=O)[nH]1	31.8 µM
COc1ccc(Nc2cc3n(c(=O)n2)CCc2cc(OC)c(OC)cc2-3)cc1	68.6 µM
Cc1ccc(C(=O)Nc2cccc(C(=O)N/N=C/c3ccc(O)cc3)c2)cc1	32.7 µM
O=C(O)c1ccc(C2CCCCC2)cn1	3.12 µM
COc1ccc(NC(=O)N[C@H]2CC[C@H](CCn3cc(-c4ccccn4)nn3)O[C@@H]2CO)cc1	12 µM
C=CCn1c(Cc2csc(N)n2)nnc1SCC(=O)Nc1ccc(C(=O)OCC)cc1	14.1 µM
c1ccc(C2=Nn3c(nnc3-c3ccccn3)SC2)cc1	64.9 µM
N#Cc1ccc(C(=O)Nc2nnc(-c3ccco3)o2)cc1	27.7 µM
O=C(CSc1ccc(-c2ccccn2)nn1)c1ccc([N+](=O)[O-])cc1	4.73 µM
Cc1ccc(C2(C)NC(=O)N(CC(=O)Nc3nc(-c4ccccn4)cs3)C2=O)cc1 (stereo not drawn)	4.67 µM
CCC(C)c1c(N)n(S(=O)(=O)c2ccc(C)cc2)oc1=O (stereo not drawn)	44.1 µM
O=C(O)C1CCCCC1C(=O)NCCCn1ccnc1 (stereo not drawn)	54.4 µM

SMILES	AC50
CC1CCN(S(=O)(=O)c2ccc(C(=O)Nc3nnc(C4=COCCO4)o3)cc2)CC1	1.21 µM
O=C(N/N=C/c1cccc2nccnc12)c1ccccc1O	4.77 µM
O=C(N[C@H]1CC[C@@H](CCn2cc(-c3ccccn3)nn2)O[C@H]1CO)c1cccnc1	8.65 µM
Oc1c(C(c2ccccc2Cl)N2CCCC2)ccc2cccnc12 (stereo not drawn)	1.85 µM
c1ccc(-c2cnc(Nc3nc(-c4ccccn4)nnc3-c3ccccc3)s2)cc1	0.916 µM
Nc1nc(-c2ccccn2)nc(N)c1Cc1ccccc1F	3.39 µM
COc1ccc(C(=O)Nc2nc(-c3ccccn3)cs2)cc1S(=O)(=O)N1CCOCC1	3.13 µM
Cc1ccc(C)c(CSc2ccc3nnc(-c4ccccn4)n3n2)c1	23.3 µM
CNCc1cn2cc(Cl)ccc2n1	21 µM
CC1(c2ccccc2)NC(=O)N(CC(=O)Nc2nc(-c3ccccn3)cs2)C1=O (stereo not drawn)	6.64 µM
Cc1ncc(CO)c(/C=N/NC(=O)c2cc(Br)ccc2O)c1O	8.86 µM
COc1ccccc1NC(=O)CSc1ccc(-c2ccccn2)nn1	3.1 µM
Oc1c(C(Nc2cccc(C(F)(F)F)c2)c2ccncc2)ccc2cccnc12 (stereo not drawn)	0.575 µM
O=S(=O)(N[C@@H]1CC[C@H](CCn2cc(-c3ccccn3)nn2)O[C@H]1CO)c1cccc(F)c1	18.2 µM
N#CC1=C(N)Oc2c(ccc3cccnc23)C1c1ccncc1 (stereo not drawn)	26.9 µM
O=C(Nc1nnc(-c2cccs2)o1)c1ccco1	48.4 µM
COc1cccc(/C=N/Nc2ccnc(=O)[nH]2)c1O	9.05 µM
Cc1cccc(C(=O)Nc2nnc(C3=COCCO3)o2)c1	12.6 µM
O=S(=O)(N[C@H]1CC[C@@H](CCn2cc(-c3ccccn3)nn2)O[C@H]1CO)c1cccc(Cl)c1	23.4 µM
CCN(CCCl)c1cc(CN(C)C)cc(NC(=O)c2ccc(C(=O)Nc3cc(CN(C)C)cc(N(CC)CCCl)c3)cc2)c1	1.92 µM
Oc1c(C(c2ccc(Cl)cc2)N2CCCC2)cc(Cl)c2cccnc12 (stereo not drawn)	1.36 µM
